# Measured values published in PMC13114161 (Antibiotics, 2026).
# Like-named read-outs stand apart in the source and are kept apart here.
# Tests used:
# CYP2C9 = target: T1, CYP2C9 (Homo sapiens, UniProt P11712); test: Cytochrome P450 inhibition; format: in vitro ADME; conditions: human liver microsomes, read-out: CYP Inhibition IC50, 2C9
# T1 construct: from tissue; host or cells: human liver microsomes
# Method: (§1) Inhibition of CYP1A2, CYP2D6, CYP2C9, CYP2C19, and CYP3A4 by TXA11114 was assessed in human liver microsomes by measuring the inhibition of probe substrate metabolism. Phenacetin, bufuralol, diclofenac, S-mephenytoin, and midazolam were used as probe substrates for CYP1A2, CYP2D6, CYP2C9, CYP2C19, and CYP3A4, respectively. Corresponding metabolites (acetaminophen, OH-bufuralol, 4-OH diclofenac, 4-OH mephenytoin, and 1-OH midazolam) were quantified by LC-MS/MS. Selective inhibitors (fluvoxamine (CYP1A2), quinidine (CYP2D6), sulfaphenazole (CYP2C9), ticlopidine (CYP2C19), and ketoconazole (CYP3A4)) were used as positive controls. Test and control compounds, prepared in DMSO at various concentrations, were spiked into 2× microsomal reaction mixtures, and 50 µL aliquots were transferred to individual wells. Probe substrates (25 µL, 4× concentration) were added to the respective wells and pre-incubated for 5 min at 37 °C. Reactions were initiated by the addition of 25 µL NADPH (4×) and incubated for 5 min (CYP3A4), 10 min (CYP1A2, CYP2D6, CYP2C9), or 20 min (CYP2C19). Reactions were quenched with 100 µL ice-cold acetonitrile containing glipizide as an internal standard. Plates were centrifuged at 4000 rpm for 15 min, and 100 µL supernatants were analyzed by LC-MS/MS in MRM mode. […] Percent inhibition was calculated as 100 − percent activity. IC50 values were determined using GraphPad Prism (version 5.02).
# CYP1A2 = target: T2, CYP1A2 (Homo sapiens, UniProt P05177); test: Cytochrome P450 inhibition; format: in vitro ADME; conditions: human liver microsomes, read-out: CYP Inhibition IC50, 1A2
# T2 construct: from tissue; host or cells: human liver microsomes
# T2 sequence (P05177 whole entry): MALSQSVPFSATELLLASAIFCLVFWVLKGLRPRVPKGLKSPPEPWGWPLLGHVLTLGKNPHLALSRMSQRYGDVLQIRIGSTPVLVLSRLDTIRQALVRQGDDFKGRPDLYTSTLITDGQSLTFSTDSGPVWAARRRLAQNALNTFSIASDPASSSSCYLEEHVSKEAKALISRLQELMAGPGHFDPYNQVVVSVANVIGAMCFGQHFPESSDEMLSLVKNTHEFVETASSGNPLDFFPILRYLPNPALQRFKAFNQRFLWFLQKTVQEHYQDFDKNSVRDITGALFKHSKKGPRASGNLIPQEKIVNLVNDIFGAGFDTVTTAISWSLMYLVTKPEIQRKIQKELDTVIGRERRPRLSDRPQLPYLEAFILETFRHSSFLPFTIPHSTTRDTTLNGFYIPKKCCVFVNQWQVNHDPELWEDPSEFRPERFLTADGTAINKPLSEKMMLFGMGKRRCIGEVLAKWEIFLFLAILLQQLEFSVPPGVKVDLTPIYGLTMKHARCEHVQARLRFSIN
# Method: as §1
# CYP2C19 = target: T3, CYP2C19 (Homo sapiens, UniProt P33261); test: Cytochrome P450 inhibition; format: in vitro ADME; conditions: human liver microsomes, read-out: CYP Inhibition IC50, 2C19
# T3 construct: from tissue; host or cells: human liver microsomes
# T3 sequence (P33261 whole entry): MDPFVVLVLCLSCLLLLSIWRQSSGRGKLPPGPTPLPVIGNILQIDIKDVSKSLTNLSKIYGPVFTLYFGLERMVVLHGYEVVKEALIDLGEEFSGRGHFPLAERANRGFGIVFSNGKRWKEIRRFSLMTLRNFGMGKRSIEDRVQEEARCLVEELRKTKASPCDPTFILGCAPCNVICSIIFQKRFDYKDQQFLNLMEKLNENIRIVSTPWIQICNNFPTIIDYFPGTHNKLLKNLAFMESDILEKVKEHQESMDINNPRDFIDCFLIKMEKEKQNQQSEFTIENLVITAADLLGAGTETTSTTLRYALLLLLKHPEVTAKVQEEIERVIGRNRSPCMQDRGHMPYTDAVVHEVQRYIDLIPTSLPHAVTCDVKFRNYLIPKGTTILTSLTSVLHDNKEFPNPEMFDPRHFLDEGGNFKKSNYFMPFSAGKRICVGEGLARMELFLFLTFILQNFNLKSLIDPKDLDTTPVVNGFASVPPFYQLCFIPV
# Method: as §1
# in vivo = conditions: female, CD-1, mouse, iv
# Method: Thus, the safety and tolerability of TXA11114 was determined to find an optimum dosing capability. The maximum tolerated dose (MTD) of TXA11114 was assessed in female mice (CD-1, 6–8 weeks old) at the University of North Texas Health Science Center (UNTHSC). TXA11114 was administered IV to groups of three female mice. Mice were administered TXA11114 in the range 30–240 mg/kg (IV bolus). […] As doses are tolerated (not resulting in effects such as mortality, convulsions, or other severe morbidity), they are increased. Survival and general observations as to the tolerability of the administered dose started immediately and continued for a period of 48 h after each dose was recorded.
# [1] = test system: P. aeruginosa DA7232 (gyrA-T83I, parC-S80L); test: Levofloxacin MIC potentiation; format: cell-based, Pseudomonas aeruginosa
# Method: (§2) MIC assays for potentiation of antimicrobial activity against P. aeruginosa were performed as described previously.
# [2] = test system: P. aeruginosa CDC AR-0232, AR-0248, AR-0249; format: cell-based, Pseudomonas aeruginosa
# Method: Frequency-of-resistance studies were carried out as described previously.
# [3] = test system: multidrug-resistant P. aeruginosa clinical isolates from Walter Reed Army Hospital; test: Levofloxacin MIC potentiation, WRAIR MRSN isolates; format: cell-based, Pseudomonas aeruginosa; conditions: for MIC: Pseudomonas aeruginosa
# Method: as §2
# P. aeruginosa = test: Effect of inoculum on levofloxacin potentiation (MIC); format: cell-based, Pseudomonas aeruginosa
# Method: as §2
# T1 sequence (P11712 whole entry): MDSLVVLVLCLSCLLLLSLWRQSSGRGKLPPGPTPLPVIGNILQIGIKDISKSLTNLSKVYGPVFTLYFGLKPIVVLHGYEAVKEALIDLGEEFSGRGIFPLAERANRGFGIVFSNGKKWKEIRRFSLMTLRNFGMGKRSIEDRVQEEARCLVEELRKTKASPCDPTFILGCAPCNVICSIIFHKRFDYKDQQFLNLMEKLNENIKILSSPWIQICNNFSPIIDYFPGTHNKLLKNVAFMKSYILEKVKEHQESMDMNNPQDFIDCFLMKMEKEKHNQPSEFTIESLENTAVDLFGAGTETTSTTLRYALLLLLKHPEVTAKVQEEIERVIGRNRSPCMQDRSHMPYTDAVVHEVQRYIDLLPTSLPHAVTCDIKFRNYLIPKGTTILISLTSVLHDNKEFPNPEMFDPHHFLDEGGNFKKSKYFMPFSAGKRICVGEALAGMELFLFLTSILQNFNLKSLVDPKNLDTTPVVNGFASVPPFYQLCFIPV
compound,measurement,setting,value
NC[C@@H]1CN[C@H](CNC(=O)c2cc3ccc(-c4ccc(F)cc4)cc3[nH]2)C1 [TXA09155],IC50 at 10 min,CYP2C9; probe diclofenac,> 100 µM
same,IC50 at 10 min,CYP1A2; probe phenacetin,> 100 µM
same,IC50 at 20 min,CYP2C19; probe S-mephenytoin,> 100 µM
same,MTD at 48 h,in vivo,30 mg/kg
"NCC(F)C[C@@H](N)CNC(=O)c1cc2ccc(-c3ccc(F)cc3)cc2[nH]1 (stereo partly drawn) [TXA11114, N-((2R)-2,5-diamino-4-fluoropentyl)-6-(4-fluorophenyl)-1H-indole-2-carboxamide]",IC50,CYP2C9,> 100 µM
same,IC50,CYP1A2,> 100 µM
same,IC50,CYP2C19,> 100 µM
same,Levofloxacin MIC in presence of TXA11114,"[1]; DA7232, […] TXA11114",1 µg/mL
same,Frequency of Resistance,[2],<1.00 × 10^−10
same,Frequency of Resistance,"[2]; CDC AR-0248, levofloxacin 4× MIC (64 μg/mL) + TXA11114 […]",<1.47 × 10^−10
same,Frequency of Resistance,"[2]; CDC AR-0249, levofloxacin 4× MIC (256 μg/mL) + TXA11114 […]",<8.77 × 10^−11
same,Levofloxacin MIC reductions across panel,"[3]; 20 MRSN isolates, + TXA11114 […]",2- to 32 fold
same,Share of isolates shifted to levofloxacin susceptibility,"[3]; 20 highly MDR MRSN isolates, + TXA11114",65%
same,"Levofloxacin MIC fold difference, +TXA11114",[3]; MRSN #994,8 fold
same,"Levofloxacin MIC, +TXA11114",[3]; MRSN #994,2 µg/mL
same,"Levofloxacin MIC, +TXA11114",[3]; MRSN #1344,0.25 µg/mL
same,"Levofloxacin MIC fold difference, +TXA11114",[3]; MRSN #3587,8 fold
same,"Levofloxacin MIC, +TXA11114",[3]; MRSN #3587,1 µg/mL
same,"Levofloxacin MIC fold difference, +TXA11114",[3]; MRSN #3705,32 fold
same,"Levofloxacin MIC, +TXA11114",[3]; MRSN #3705,0.25 µg/mL
same,"Levofloxacin MIC fold difference, +TXA11114",[3]; MRSN #5498,8 fold
same,"Levofloxacin MIC, +TXA11114",[3]; MRSN #5498,4 µg/mL
same,"Levofloxacin MIC fold difference, +TXA11114",[3]; MRSN #5519,16 fold
same,"Levofloxacin MIC, +TXA11114",[3]; MRSN #5519,4 µg/mL
same,"Levofloxacin MIC fold difference, +TXA11114",[3]; MRSN #5539,2 fold
same,"Levofloxacin MIC, +TXA11114",[3]; MRSN #5539,8 µg/mL
same,"Levofloxacin MIC fold difference, +TXA11114",[3]; MRSN #6220,16 fold
same,"Levofloxacin MIC, +TXA11114",[3]; MRSN #6220,8 µg/mL
same,"Levofloxacin MIC fold difference, +TXA11114",[3]; MRSN #6241,4 fold
same,"Levofloxacin MIC, +TXA11114",[3]; MRSN #6241,2 µg/mL
same,"Levofloxacin MIC fold difference, +TXA11114",[3]; MRSN #6678,8 fold
same,"Levofloxacin MIC, +TXA11114",[3]; MRSN #6678,4 µg/mL
same,"Levofloxacin MIC fold difference, +TXA11114",[3]; MRSN # 6695,16 fold
same,"Levofloxacin MIC, +TXA11114",[3]; MRSN # 6695,0.5 µg/mL
same,"Levofloxacin MIC fold difference, +TXA11114",[3]; MRSN #8130,8 fold
same,"Levofloxacin MIC, +TXA11114",[3]; MRSN #8130,2 µg/mL
same,"Levofloxacin MIC fold difference, +TXA11114",[3]; MRSN #8139,8 fold
same,"Levofloxacin MIC, +TXA11114",[3]; MRSN #8139,1 µg/mL
same,"Levofloxacin MIC fold difference, +TXA11114",[3]; MRSN #8912,8 fold
same,"Levofloxacin MIC, +TXA11114",[3]; MRSN #8912,2 µg/mL
same,"Levofloxacin MIC fold difference, +TXA11114",[3]; MRSN #8914,8 fold
same,"Levofloxacin MIC, +TXA11114",[3]; MRSN #8914,2 µg/mL
same,"Levofloxacin MIC fold difference, +TXA11114",[3]; MRSN #8915,2 fold
same,"Levofloxacin MIC, +TXA11114",[3]; MRSN #8915,64 µg/mL
same,"Levofloxacin MIC fold difference, +TXA11114",[3]; MRSN #14981,16 fold
same,"Levofloxacin MIC, +TXA11114",[3]; MRSN #14981,1 µg/mL
same,"Levofloxacin MIC fold difference, +TXA11114",[3]; MRSN #15566,32 fold
same,"Levofloxacin MIC, +TXA11114",[3]; MRSN #15566,0.25 µg/mL
same,"Levofloxacin MIC fold difference, +TXA11114",[3]; MRSN #16344,16 fold
same,"Levofloxacin MIC, +TXA11114",[3]; MRSN #16344,0.5 µg/mL
same,"Levofloxacin MIC fold difference, +TXA11114",[3]; MRSN #369569,8 fold
same,"Levofloxacin MIC, +TXA11114",[3]; MRSN #369569,4 µg/mL
same,LVX MIC,"P. aeruginosa; OD600 0.001, TXA11114 25 μg/mL",0.031 µg/mL
same,LVX MIC fold difference,"P. aeruginosa; OD600 0.001, TXA11114 25 μg/mL",32 fold
same,LVX MIC,"P. aeruginosa; OD600 0.001, TXA11114 50 μg/mL",0.008 µg/mL
same,LVX MIC fold difference,"P. aeruginosa; OD600 0.001, TXA11114 50 μg/mL",128 fold
same,LVX MIC,"P. aeruginosa; OD600 0.025, TXA11114 25 μg/mL",0.063 µg/mL
same,LVX MIC fold difference,"P. aeruginosa; OD600 0.025, TXA11114 25 μg/mL",32 fold
same,LVX MIC,"P. aeruginosa; OD600 0.025, TXA11114 50 μg/mL",0.031 µg/mL
same,LVX MIC fold difference,"P. aeruginosa; OD600 0.025, TXA11114 50 μg/mL",64 fold
same,Minimal potentiation concentration (MPC),P. aeruginosa; standard broth microdilution inoculum,6.25 µg/mL
same,MTD at 48 h,"in vivo; in vivo, Maximum tolerated dose (MTD), mice, IV bolus for TXA11114",< 90 mg/kg
same,MTD at 48 h,in vivo,> 60 mg/kg
"C[C@H]1COc2c(N3CCN(C)CC3)c(F)cc3c(=O)c(C(=O)O)cn1c23 [Levofloxacin, levofloxacin]",MIC,"[1]; Pseudomonas aeruginosa, read-out: Levofloxacin MIC",256 µg/mL
same,Frequency of Resistance,"[2]; CDC AR-0232, levofloxacin 4× MIC (32 μg/mL) alone",1.68 × 10^−8
same,Frequency of Resistance,"[2]; CDC AR-0248, levofloxacin 4× MIC (64 μg/mL) alone",8.64 × 10^−8
same,Frequency of Resistance,"[2]; CDC AR-0249, levofloxacin 4× MIC (256 μg/mL) alone",2.15 × 10^−8
same,MIC,"[3]; read-out: Levofloxacin MIC alone across panel, 20 MRSN isolates",≥ 8 µg/mL
same,MIC,"[3]; read-out: Levofloxacin MIC, No EPI, MRSN #994",16 µg/mL
same,MIC,"[3]; read-out: Levofloxacin MIC, No EPI, MRSN #1344",8 µg/mL
same,MIC,"[3]; read-out: Levofloxacin MIC, No EPI, MRSN #3587",8 µg/mL
same,MIC,"[3]; read-out: Levofloxacin MIC, No EPI, MRSN #3705",8 µg/mL
same,MIC,"[3]; read-out: Levofloxacin MIC, No EPI, MRSN #5498",32 µg/mL
same,MIC,"[3]; read-out: Levofloxacin MIC, No EPI, MRSN #5519",64 µg/mL
same,MIC,"[3]; read-out: Levofloxacin MIC, No EPI, MRSN #5539",16 µg/mL
same,MIC,"[3]; read-out: Levofloxacin MIC, No EPI, MRSN #6220",128 µg/mL
same,MIC,"[3]; read-out: Levofloxacin MIC, No EPI, MRSN #6241",8 µg/mL
same,MIC,"[3]; read-out: Levofloxacin MIC, No EPI, MRSN #6678",32 µg/mL
same,MIC,"[3]; read-out: Levofloxacin MIC, No EPI, MRSN # 6695",8 µg/mL
same,MIC,"[3]; read-out: Levofloxacin MIC, No EPI, MRSN #8130",16 µg/mL
same,MIC,"[3]; read-out: Levofloxacin MIC, No EPI, MRSN #8139",8 µg/mL
same,MIC,"[3]; read-out: Levofloxacin MIC, No EPI, MRSN #8912",16 µg/mL
same,MIC,"[3]; read-out: Levofloxacin MIC, No EPI, MRSN #8914",16 µg/mL
same,MIC,"[3]; read-out: Levofloxacin MIC, No EPI, MRSN #8915",128 µg/mL
same,MIC,"[3]; read-out: Levofloxacin MIC, No EPI, MRSN #14981",16 µg/mL
same,MIC,"[3]; read-out: Levofloxacin MIC, No EPI, MRSN #15566",8 µg/mL
same,MIC,"[3]; read-out: Levofloxacin MIC, No EPI, MRSN #16344",8 µg/mL
same,MIC,"[3]; read-out: Levofloxacin MIC, No EPI, MRSN #369569",32 µg/mL
same,LVX MIC,"P. aeruginosa; OD600 0.001, TXA11114 0 μg/mL",1 µg/mL
same,LVX MIC,"P. aeruginosa; OD600 0.025, TXA11114 0 μg/mL",2 µg/mL
